Assay results from patent US7792665B2, “Method for designing a compound based on the three dimensional structure of phosphoinositide dependent protein kinase 1 (PDK1)” (Medical Research Council, priority 2002, dated 2010).
Where a chain is given by its changes, count along the chain named. Where a SMILES comes first, the peptide text is derived from it. [ ]: non-standard residue; d: D form. pT = C[C@@H](OP(=O)(O)O)[C@H](N)C(=O)O

Tests used:
Format in all cases: biochemical
[1] = target: T1, PDK1[K76A] (Homo sapiens, UniProt O15530, K76A); experiment: PDK1 catalytic activity towards T308tide, activation by peptides, PDK1[K76A]; settings: T308tide substrate
T1 construct: made in house; host or cells: human embryonic kidney 293 cells (pEBG2T vector)
T1 sequence (O15530 1-556 K76A): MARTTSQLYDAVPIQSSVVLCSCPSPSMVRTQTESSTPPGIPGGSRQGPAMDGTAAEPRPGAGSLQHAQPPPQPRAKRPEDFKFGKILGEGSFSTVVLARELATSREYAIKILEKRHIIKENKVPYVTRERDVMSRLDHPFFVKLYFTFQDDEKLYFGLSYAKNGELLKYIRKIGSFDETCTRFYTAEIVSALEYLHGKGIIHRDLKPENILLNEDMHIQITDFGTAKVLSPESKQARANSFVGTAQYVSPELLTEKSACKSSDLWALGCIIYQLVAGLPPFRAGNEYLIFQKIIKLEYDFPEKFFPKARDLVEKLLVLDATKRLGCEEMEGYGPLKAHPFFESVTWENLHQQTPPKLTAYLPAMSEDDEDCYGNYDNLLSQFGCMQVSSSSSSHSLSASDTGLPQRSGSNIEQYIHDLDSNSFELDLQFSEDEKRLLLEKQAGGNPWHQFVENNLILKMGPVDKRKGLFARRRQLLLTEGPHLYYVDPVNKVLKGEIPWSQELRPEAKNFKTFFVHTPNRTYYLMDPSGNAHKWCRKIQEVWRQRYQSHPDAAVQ
Protocol: (§1) C. Activation of the indicated forms of PDK1 by 56K-pHM and S6K-HM. PDK1 activity was measured using the peptide substrate (T308tide) in the presence of the indicated concentrations of 56K-pHM (closed circles) and S6K-HM (open circles) as described in the methods. Assays were performed in triplicate and similar results obtained in 2 separate experiments. The results are the average—SD for a single experiment.
(§2) The ability of wild type and mutant PDK1 to phosphorylate the synthetic peptide T308tide ([…] ([Biondi et al., 2000]) (SEQ ID NO:108) was carried out in 30 μl assays containing 100 ng of wild type or mutant PDK1, 50 mM Tris/HCl pH 7.5, 0.1% 13-mercaptoethanol, 10 mM MgCl2, 100 μM [32γ P]ATP (200 cpm/pmol), 0.5 μM microcystin-LR, 1 mM T308tide in the presence or absence of the indicated concentrations of the 56K-pHM peptide ([…](P)YVAPSV) (SEQ ID NO:104) or 56K-HM. peptide ([…]) (SEQ ID NO:105). After incubation for 10 min at 30° C., 25 μl of the resultant mixture was spotted into P81 phosphocellulose paper (2×2 cm) and the papers washed and analysed as described previously for assays of MAP kinase. Control assays were carried out in parallel in which either PDK1, or peptide substrate were omitted; these values were always less than 5% of the activity measured in the presence of these reagents. […]

[2] = target: T2, PDK1[R131A] (Homo sapiens, UniProt O15530, R131A); experiment: PDK1 catalytic activity towards T308tide, activation by peptides, PDK1[R131A]
T2 construct: GST (N); made in house; host or cells: human embryonic kidney 293 cells (pEBG2T vector)
T2 sequence (O15530 1-556 R131A): T1 sequence (O15530 1-556 K76A) with A76K, R131A
Protocol: as §1
The ability of wild type and mutant PDK1 to phosphorylate the synthetic peptide T308tide ([…] ([Biondi et al., 2000]) (SEQ ID NO:108) was carried out in 30 μl assays containing 100 ng of wild type or mutant PDK1, 50 mM Tris/HCl pH 7.5, 0.1% 13-mercaptoethanol, 10 mM MgCl2, 100 μM [32γ P]ATP (200 cpm/pmol), 0.5 μM microcystin-LR, 1 mM T308tide in the presence or absence of the indicated concentrations of the 56K-pHM peptide ([…](P)YVAPSV) (SEQ ID NO:104) or 56K-HM. peptide ([…]) (SEQ ID NO:105). After incubation for 10 min at 30° C., 25 μl of the resultant mixture was spotted into P81 phosphocellulose paper (2×2 cm) and the papers washed and analysed as described previously for assays of MAP kinase. Control assays were carried out in parallel in which either PDK1, or peptide substrate were omitted; these values were always less than 5% of the activity measured in the presence of these reagents. One Unit of PDK1 activity was defined as that amount required to catalyse the phosphorylation of 1 nmol of the T308tide in 1 min.

[3] = target: T3, PDK1[T148A] (Homo sapiens, UniProt O15530, T148A); experiment: PDK1 catalytic activity towards T308tide, activation by peptides, PDK1[T148A]; set-up: made in house; settings: T308tide substrate
T3 sequence (O15530 1-556 T148A): T1 sequence (O15530 1-556 K76A) with A76K, T148A
Protocol: as §1, §2

## CC(C)C[C@H](NC(=O)[C@H](Cc1ccccc1)NC(=O)[C@@H](NC(=O)[C@H](CCC(N)=O)NC(=O)[C@H](CC(N)=O)NC(=O)[C@H](C)NC(=O)[C@H](CO)NC(=O)[C@H](CCC(=O)O)NC(=O)[C@@H](N)CO)C(C)C)C(=O)NCC(=O)N[C@@H](Cc1ccccc1)C(=O)N[C@H](C(=O)N[C@@H](Cc1ccc(O)cc1)C(=O)N[C@H](C(=O)N[C@@H](C)C(=O)N1CCC[C@H]1C(=O)N[C@@H](CO)C(=O)N[C@H](C(=O)O)C(C)C)C(C)C)[C@@H](C)OP(=O)(O)O [S6K-pHM] (H-SESANQVFLGF[pT]YVAPSV-OH; N-terminus and C-terminus assumed)
[1]
  higher concentration required to half maximally activate PDK1[K76A] than wild type: approximately 3 fold
[2]; peptide 0.3 and 1 mM
  activation of PDK1[R131A]: only moderately further increased
[2]; peptide below 0.1 mM
  activation of PDK1[R131A]: not significantly activated
[3]
  activation of PDK1[T148A]: activated similarly as wild type PDK1
